Laboratory results from ChEMBL document CHEMBL1139972, “Dihydro-[1H]-quinolin-2-ones as retinoid X receptor (RXR) agonists for potential treatment of dyslipidemia” (Bioorg Med Chem Lett, 2007).
One block for each molecule: values may come before it. Activity calls are given as the source filed them. No cut-off for these calls is given here.

What was measured:
[1] = molecular target: T1, Retinoic acid receptor RXR-alpha (Homo sapiens) (UniProt P19793); assay: Activity at RXRalpha by GAL4DNA cotransfection assay relative to 5-((3-(1-ethyl-4,4,6-trimethyl-2-oxo-1,2,3,4-tetrahydroquinolin-7-yl)-4-(trifluoromethoxy)phenyl)methylene)thiazolidine-2,4-dione; set-up: concentration or dose not given beside the values
T1 sequence (whole entry): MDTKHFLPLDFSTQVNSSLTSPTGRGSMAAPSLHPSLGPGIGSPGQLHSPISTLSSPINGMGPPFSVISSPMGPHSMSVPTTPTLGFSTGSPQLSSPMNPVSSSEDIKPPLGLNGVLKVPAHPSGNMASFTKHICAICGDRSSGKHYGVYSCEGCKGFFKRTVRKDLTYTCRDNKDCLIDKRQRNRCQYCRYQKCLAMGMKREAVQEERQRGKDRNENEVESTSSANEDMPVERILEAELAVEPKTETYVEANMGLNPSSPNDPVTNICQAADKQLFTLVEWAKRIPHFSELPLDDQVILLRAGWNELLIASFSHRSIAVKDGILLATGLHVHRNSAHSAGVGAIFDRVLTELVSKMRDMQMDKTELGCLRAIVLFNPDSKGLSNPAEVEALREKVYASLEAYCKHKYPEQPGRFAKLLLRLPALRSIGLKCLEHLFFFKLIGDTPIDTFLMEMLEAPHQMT

[2] = species on record: Homo sapiens; assay: Activation of RXR-LXR heterodimer assessed as induction of ABCA1 mRNA relative to 5-((3-(1-ethyl-4,4,6-trimethyl-2-oxo-1,2,3,4-tetrahydroquinolin-7-yl)-4-(trifluoromethoxy)phenyl)methylene)thiazolidine-2,4-dione; set-up: concentration or dose not given beside the values
[3] = Activity at RXR-LXR heterodimer assessed as induction of ABCA1 mRNA; set-up: species or system Homo sapiens
[4] = molecular target: T2, Retinoic acid receptor RXR-alpha (Homo sapiens, UniProt P19793); assay: Activity at RXRalpha by GAL4DNA cotransfection assay
T2 sequence (P19793 whole entry): T1 sequence (whole entry)

[5] = Activity at RXR-PPARgamma in human preadipocytes assessed as induction of adipocytes fatty acid binding protein; format: cell-based
[6] = system: Rattus norvegicus; assay: Effect on serum LDL-C level in high cholesterol diet fed Sprague-Dawley rat at 30 mg/kg, po after 8 days relative to control; format: functional
[7] = system: Rattus norvegicus; assay: Effect on serum cholesterol level in high cholesterol diet fed Sprague-Dawley rat at 1 mg/kg, po after 8 days relative to control; format: functional
[8] = AUC in rat at 3 mg/kg, po; format: ADME, organism-based; set-up: dose 3 mg/kg, route oral; conditions: plasma
[9] = Clearance in rat at 3 mg/kg, po; format: ADME, organism-based; set-up: dose 3 mg/kg, route oral; conditions: in vivo
[10] = species on record: Mus musculus; assay: Decrease in blood glucose level in db/db mouse after 11 days; format: functional, organism-based
[11] = system: Rattus norvegicus; assay: Effect on serum HDL-C level in high cholesterol diet fed Sprague-Dawley rat at 0.3 mg/kg, po after 8 days relative to control; format: functional
[12] = system: Rattus norvegicus; assay: Effect on serum triglyceride level in high cholesterol diet fed Sprague-Dawley rat at 10 mg/kg, po after 8 days relative to control; format: functional
[13] = Cmax in high cholesterol diet fed Sprague-Dawley rat at 0.3 mg/kg, po after 8 days; format: ADME, organism-based; set-up: dose 0.3 mg/kg, route oral; conditions: in vivo
[14] = system: Rattus norvegicus; assay: Effect on serum triglyceride level in high cholesterol diet fed Sprague-Dawley rat at 0.3 mg/kg, po after 8 days relative to control; format: functional
[15] = system: Rattus norvegicus; assay: Effect on serum LDL-C level in high cholesterol diet fed Sprague-Dawley rat at 0.3 mg/kg, po after 8 days relative to control; format: functional
[16] = system: Rattus norvegicus; assay: Effect on serum LDL-C level in high cholesterol diet fed Sprague-Dawley rat at 1 mg/kg, po after 8 days relative to control; format: functional
[17] = Oral bioavailability in rat at 3 mg/kg; format: ADME, organism-based; conditions: in vivo
[18] = system: Rattus norvegicus; assay: Effect on serum cholesterol level in high cholesterol diet fed Sprague-Dawley rat at 3 mg/kg, po after 8 days relative to control; format: functional
[19] = system: Rattus norvegicus; assay: Effect on serum triglyceride level in high cholesterol diet fed Sprague-Dawley rat at 3 mg/kg, po after 8 days relative to control; format: functional
[20] = Cmax in rat at 3 mg/kg, po; format: ADME, organism-based; set-up: dose 3 mg/kg, route oral; conditions: in vivo
[21] = Half life in rat at 3 mg/kg, po; format: ADME, organism-based; set-up: dose 3 mg/kg, route oral; conditions: in vivo
[22] = system: Rattus norvegicus; assay: Effect on serum LDL-C level in high cholesterol diet fed Sprague-Dawley rat at 3 mg/kg, po after 8 days relative to control; format: functional
[23] = Cmax in high cholesterol diet fed Sprague-Dawley rat at 30 mg/kg, po after 8 days; format: ADME, organism-based; set-up: dose 30 mg/kg, route oral; conditions: in vivo
[24] = system: Rattus norvegicus; assay: Effect on serum HDL-C level in high cholesterol diet fed Sprague-Dawley rat at 1 mg/kg, po after 8 days relative to control; format: functional
[25] = system: Rattus norvegicus; assay: Effect on serum triglyceride level in high cholesterol diet fed Sprague-Dawley rat at 1 mg/kg, po after 8 days relative to control; format: functional
[26] = system: Rattus norvegicus; assay: Effect on serum LDL-C level in high cholesterol diet fed Sprague-Dawley rat at 10 mg/kg, po after 8 days relative to control; format: functional
[27] = system: Rattus norvegicus; assay: Effect on serum cholesterol level in high cholesterol diet fed Sprague-Dawley rat at 0.3 mg/kg, po after 8 days relative to control; format: functional
[28] = system: Rattus norvegicus; assay: Effect on serum cholesterol level in high cholesterol diet fed Sprague-Dawley rat at 10 mg/kg, po after 8 days relative to control; format: functional
[29] = system: Rattus norvegicus; assay: Effect on serum HDL-C level in high cholesterol diet fed Sprague-Dawley rat at 30 mg/kg, po after 8 days relative to control; format: functional
[30] = system: Rattus norvegicus; assay: Effect on serum HDL-C level in high cholesterol diet fed Sprague-Dawley rat at 10 mg/kg, po after 8 days relative to control; format: functional
[31] = system: Rattus norvegicus; assay: Effect on serum HDL-C level in high cholesterol diet fed Sprague-Dawley rat at 3 mg/kg, po after 8 days relative to control; format: functional
[32] = system: Rattus norvegicus; assay: Effect on serum triglyceride level in high cholesterol diet fed Sprague-Dawley rat at 30 mg/kg, po after 8 days relative to control; format: functional
[33] = system: Rattus norvegicus; assay: Effect on serum cholesterol level in high cholesterol diet fed Sprague-Dawley rat at 30 mg/kg, po after 8 days relative to control; format: functional

SMILES: CCN1C(=O)CC(C)(C)c2cc(C)c(-c3cc(/C=C/C(=O)O)ccc3OC(F)(F)F)cc21
Activity [1]: 115%
Activity [2]: 81%
EC50 [3]: 3.6 nM

SMILES: CCN1C(=O)CC(C)(C)c2cc(C)c(-c3cc(/C=C(\C)C(=O)O)ccc3OC(F)(F)F)cc21
Activity [1]: 81%
EC50 [4]: 27.9 nM
Activity [2]: 49%
EC50 [3]: 100 nM

SMILES: COc1ccc(CCC(=O)O)cc1-c1cc2c(cc1C)C(C)(C)CC(=O)N2C(C)C
Activity [1]: 60%
EC50 [4]: 361 nM
EC50 [3]: > 3000 nM

SMILES: CCN1C(=O)CC(C)(C)c2cc(C)c(-c3cc(CCCC(=O)O)ccc3OC(F)(F)F)cc21
Activity [1]: 70%
EC50 [4]: 527 nM
EC50 [3]: > 3000 nM

SMILES: CCN1C(=O)CC(C)(C)c2cc(C)c(-c3cc(/C(C)=C/C(=O)O)ccc3OC(F)(F)F)cc21
EC50 [4]: > 10000 nM

SMILES: CCN1C(=O)CC(C)(C)c2cc(C)c(-c3cc(C(C)CC(=O)O)ccc3OC(F)(F)F)cc21 (centres undefined)
Activity [1]: 99%
EC50 [4]: 37.7 nM
Activity [2]: 160%
EC50 [3]: 347 nM

More lines, main results first:

EC50 [3]: > 3000 nM
SMILES: CCN1C(=O)CC(C)(C)c2cc(C)c(-c3cc(OCC(=O)O)ccc3OC(F)(F)F)cc21

Activity [1]: 108%
EC50 [4]: 144 nM
EC50 [3]: > 3000 nM
SMILES: Cc1cc2c(cc1-c1cc(C3CC3C(=O)O)ccc1OCC(F)(F)F)N(C)C(=O)CC2(C)C (racemic)

Activity [1]: 70%
EC50 [4]: 10 nM
EC50 [5]: 266 nM
EC50 [3]: > 3000 nM
SMILES: Cc1cc2c(cc1-c1cc([C@@H]3C[C@H]3C(=O)O)ccc1OC(F)(F)F)N(C(C)C)C(=O)CC2(C)C

Activity [1]: 50%
EC50 [4]: 198 nM
EC50 [3]: > 3000 nM
SMILES: Cc1cc2c(cc1-c1cc([C@H]3C[C@@H]3C(=O)O)ccc1OC(F)(F)F)N(C(C)C)C(=O)CC2(C)C

Activity [1]: 91%
EC50 [4]: 45.9 nM
EC50 [3]: 53 nM
SMILES: Cc1cc2c(cc1-c1cc(CCC(=O)O)ccc1OC(F)(F)F)N(C)C(=O)CC2(C)C

Activity [1]: 79%
AUC [8]: 6130 ng·h/mL
CL/F [9]: 4.6 mL/min/kg
Cmax [13]: 58.5 ng/mL
bioavailability [17]: 71%
Cmax [20]: 678 ng/mL
half-life [21]: 24 h
EC50 [4]: 7.2 nM
EC50 [5]: 1200 nM
Cmax [23]: 7510 ng/mL
Activity [2]: 70%
EC50 [3]: 47 nM
SMILES: CCN1C(=O)CC(C)(C)c2cc(C)c(-c3cc(CCC(=O)O)ccc3OC(F)(F)F)cc21
Activity [6]: 38 mg/dL
Activity [7]: 313 mg/dL
Activity [10]: inactive
Activity [11]: 29 mg/dL
Activity [12]: 270 mg/dL
Activity [14]: 320 mg/dL
Activity [15]: 53 mg/dL
Activity [16]: 46 mg/dL
Activity [18]: 302 mg/dL
Activity [19]: 253 mg/dL
Activity [22]: 46 mg/dL
Activity [24]: 30 mg/dL
Activity [25]: 279 mg/dL
Activity [26]: 35 mg/dL
Activity [27]: 343 mg/dL
Activity [28]: 228 mg/dL
Activity [29]: 42 mg/dL
Activity [30]: 39 mg/dL
Activity [31]: 37 mg/dL
Activity [32]: 322 mg/dL
Activity [33]: 252 mg/dL

Activity [1]: 97%
EC50 [4]: 39.1 nM
Activity [2]: 75%
EC50 [3]: 886 nM
SMILES: CCN1C(=O)CC(C)(C)c2cc(C)c(-c3cc(/C=C\C(=O)O)ccc3OC(F)(F)F)cc21
